Two molecules from ChEMBL document CHEMBL1154560, “New sesquiterpene/quinones from two sponges of the genus Hyrtios” (J Nat Prod, 2000) can be followed below.

Values after ≈ are worked out from the molar mass of the structure shown.

A short description of the data set: Toxicity in Artemia larvae. To be noted: in vivo, read-out: LD50 (the source's name). The class given is organism-based.

On to `C=C1CCC[C@H]2[C@](C)(CC3=C(O)C(=O)C=C(OC)C3=O)[C@@H](C)CC[C@@]12C`, for which the LC50 came to 4 µg/mL (≈ 11.2 µM).
In the case of `COC1=CC(=O)C(O)=C(C[C@]2(C)[C@@H](C)CC[C@]3(C)C(C)=CCC[C@@H]23)C1=O` [ISOSPONGIAQUINONE] it was 2 µg/mL (≈ 5.58 µM).
